In patent publication US11655201B2, “Method for preparing 2-tert-butyl-4-methoxyphenol and new crystal form thereof” (BIOMEDICAL ANALYSIS CENTER, ACADEMY OF MILITARY MEDICAL …, priority 2017, dated 2023):
“And” between values parts separate entries of the source, which are not always exact repeats. Equal entries are not always repeated.

Columns and labels:
[1] = Pharmacokinetic evaluation of 2-BHA of form A in rats by intragastric administration; assay type: in vivo, SD rats; settings: 100 mg/kg intragastric, individual rats 1♂-6♀;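 also: plasma concentration in ng/mL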
Description: SD rats, half male and half female, fasted overnight, 6 rats/group, were given 2-tert-butyl-4-methoxyphenol suspended in Tween 80 (2-BHA of form A prepared by Example 4) by intragastric administration, the dose being 100 mg/kg body weight. […]

[2] = Accelerated stability test for bulk drug; assay type: physicochemical; settings: for Appearance / Content / Related substance: bulk drug, 40° C.±2° C., RH 75%±5%
Description: (§1) An accelerated stability test for bulk drug was carried out directly from the crystal powder. An accelerated stability test for formulation was carried out on tablets.

[3] = Accelerated stability test for formulation (tablets); assay type: physicochemical; settings: conclusion from Tables 3 and 4
Description: as §1
Preparation process of formulation: form A of 2-tert-butyl-4-methoxyphenol (2-BHA) (form A of 2-BHA prepared in Example 4), microcrystalline cellulose, lactose and other auxiliary materials respectively were screened through 100 mesh, respectively for use. The prescription amount of form A of 2-tert-butyl-4-methoxyphenol, microcrystalline cellulose, lactose and other auxiliary materials were fully mixed according to the equal volume addition method. The above mixture was added to an aqueous solution of 2-3% polyvinylpyrrolidone under stirring, to obtain a soft material, which was screened through a 20-mesh sieve. The tablet weight regulator was adjusted to make the tablet weight being 250±10 mg, the hardness being 60-80 N, and then the tablet was compressed. After screening for dissolution, homogeneity and reproducibility and the like, the prescription was determined and 3 batches of samples were prepared.

[4] = Plasma concentration after intragastric administration in mice; assay type: in vivo
[5] = system: differentiation of monocytes into M2 macrophages; settings: by inhibiting production of ROS; Cell Research 2013, 23:898-914; cited from earlier work
[6] = system: lung cancer in K-ras^LA2 model mice; settings: Cell Research 2013, 23:898-914; cited from earlier work
[7] = Drug metabolism experiments (in vivo half-life)
Description: (§2) At the same time, it was found through drug metabolism experiments that the in vivo half-life of BHA was very short, only 30-60 minutes. […] Therefore, combining with the research results of literature on the metabolites of 2-tert-butyl-4-methoxyphenol (with DNA damaging effects, Food and Chemical Toxicology 1999, 37: 1027-1038), it can be inferred that 2-tert-butyl-4-methoxyphenol itself has an anti-tumor effect, and the interaction of its metabolite tert-butylhydroquinone (TBHQ) with DNA may be the cause of its side effects. BHA has the potential to be developed into a drug.

[8] = system: mice; experiment: Toxicology experiments in mice; assay type: in vivo
Description: as §2

[9] = Comparative study of antioxidant activity, 2-BHA vs 3-BHA; settings: ratio to 3-BHA
From the text: (§3) However, the existing commercial BHA products are all mixtures of 2-tert-butyl-4-methoxyphenol (2-BHA) and 3-tert-butyl-4-methoxyphenol (3-BHA), with a content ratio of approximately 9:1-50:1. The inventors comparatively studied the antioxidant activities and macrophage polarization regulation activities of 2-tert-butyl-4-methoxyphenol and 3-tert-butyl-4-methoxyphenol. […] Therefore, the development of 2-tert-butyl-4-methoxyphenol as a medicine still needs to improve the purity.

[10] = system: macrophage polarization; experiment: Comparative study of macrophage polarization regulation activity, 2-BHA vs 3-BHA; assay type: cell-based; settings: ratio to 3-BHA
From the text: as §3

[11] = system: M2 polarization of macrophages; settings: CN 201610037849.5; cited from earlier work
[12] = system: lung cancer and breast cancer; settings: mouse models with lung cancer and breast cancer; CN 201610037849.5; cited from earlier work
[13] = early studies, literature; cited from earlier work
[14] = 600 mg/kg administration in mice
[15] = 1100 mg/kg administration in mice

In the case of `COc1ccc(O)c(C(C)(C)C)c1` [2-BHA of form A, 2-tert-butyl-4-methoxyphenol], the plasma concentration ([1]; 5 min after administration, female rats) is reported as 80.026 ng/mL and 165.939 ng/mL and 77.996 ng/mL, the plasma concentration ([1]; 5 min after administration, male rats) is reported as 159.617 ng/mL and 125.112 ng/mL and 147.531 ng/mL and the plasma concentration ([1]; 30 min, female rats) is reported as 157.878 ng/mL and 371.466 ng/mL and 240.870 ng/mL. The plasma concentration ([1]; 30 min, male rats) was 694.651 ng/mL and 489.006 ng/mL and 359.028 ng/mL, the plasma concentration ([1]; 1 h, female rats) was 504.084 ng/mL and 603.120 ng/mL and 643.208 ng/mL and the plasma concentration ([1]; 1 h, male rats) was 560.980 ng/mL and 570.039 ng/mL. The plasma concentration ([1]; 2 h, female rats) was 687.296 ng/mL and 410.399 ng/mL and 199.206 ng/mL, the plasma concentration ([1]; 2 h, male rats) was 267.167 ng/mL and 267.234 ng/mL and 312.997 ng/mL and the plasma concentration ([1]; 4 h, female rats) was 283.840 ng/mL and 205.532 ng/mL and 146.191 ng/mL. For the same molecule, the plasma concentration ([1]; 4 h, male rats) was 192.535 ng/mL and 63.401 ng/mL and 86.609 ng/mL, the plasma concentration ([1]; 8 h, female rats) was 78.447 ng/mL and 42.984 ng/mL and 121.700 ng/mL and the plasma concentration ([1]; 8 h, male rats) was 117.919 ng/mL and 27.328 ng/mL and 192.532 ng/mL. The plasma concentration ([1]; 24 h, BLLOQ = below the detection limit, female rats) was “BLLOQ”, the plasma concentration ([1]; 24 h, BLLOQ = below the detection limit, male rats) was “BLLOQ” and the concentration at 1 h ([1]; both sexes, SD, rat, plasma, oral, 100 mg/kg, 1 h) was 881 ng/mL. For the same molecule, the Appearance ([2]; 0 month, listed as 20160808) was “white”, the Content ([2]; 0 month, listed as 20160808) was 99.5% and the Related substance ([2]; 0 month, listed as 20160808) was 0.34%. For the same molecule, the Appearance ([2]; 0 month, listed as 20160904) was “white”, the Content ([2]; 0 month, listed as 20160904) was 99.8% and the Related substance ([2]; 0 month, listed as 20160904) was 0.14%. For the same molecule, the Appearance ([2]; 0 month, listed as 20160908) was “white”, the Content ([2]; 0 month, listed as 20160908) was 99.6% and the Related substance ([2]; 0 month, listed as 20160908) was 0.34%. The Appearance ([2]; 1 month, listed as 20160808) was “white”, the Content ([2]; 1 month, listed as 20160808) was 99.7% and the Related substance ([2]; 1 month, listed as 20160808) was 0.22%. The Appearance ([2]; 1 month, listed as 20160904) was “white”, the Content ([2]; 1 month, listed as 20160904) was 99.7% and the Related substance ([2]; 1 month, listed as 20160904) was 0.21%. For the same molecule, the Appearance ([2]; 1 month, listed as 20160908) was “white”, the Content ([2]; 1 month, listed as 20160908) was 99.6% and the Related substance ([2]; 1 month, listed as 20160908) was 0.31%. For the same molecule, the Appearance ([2]; 2 month, listed as 20160808) was “white”, the Content ([2]; 2 month, listed as 20160808) was 99.4% and the Related substance ([2]; 2 month, listed as 20160808) was 0.19%. The Appearance ([2]; 2 month, listed as 20160904) was “white”, the Content ([2]; 2 month, listed as 20160904) was 99.3% and the Related substance ([2]; 2 month, listed as 20160904) was 0.39%. For the same molecule, the Appearance ([2]; 2 month, listed as 20160908) was “white”, the Content ([2]; 2 month, listed as 20160908) was 99.5% and the Related substance ([2]; 2 month, listed as 20160908) was 0.29%. The Appearance ([2]; 3 month, listed as 20160808) was “white”, the Content ([2]; 3 month, listed as 20160808) was 99.5% and the Related substance ([2]; 3 month, listed as 20160808) was 0.35%. For the same molecule, the Appearance ([2]; 3 month, listed as 20160904) was “white”, the Content ([2]; 3 month, listed as 20160904) was 99.3% and the Related substance ([2]; 3 month, listed as 20160904) was 0.35%. For the same molecule, the Appearance ([2]; 3 month, listed as 20160908) was “white”, the Content ([2]; 3 month, listed as 20160908) was 99.6% and the Related substance ([2]; 3 month, listed as 20160908) was 0.25%. For the same molecule, the “physical and chemical stability compared with commercially available BHA” value ([2]; fluidity, agglomeration, oxidation and colour change in the environment) was “better physical and chemical stability than commercially available BHA”, the “stability during the preparation process” value [3] was “better stability” and the “correlation of maximum plasma concentration and AUC with the administration dose” value [4] was “better correlation with the administration dose”. The “individual differences in plasma concentration” value [4] was “small individual differences in plasma concentration”.
With `COc1ccc(O)c(C(C)(C)C)c1` [2-tert-butyl-4-methoxyphenol] the Appearance ([2]; 0 month) was “off-white”, the Content ([2]; 0 month) was 98.0% and the Related substance ([2]; 0 month) was 1.8%. For the same molecule, the Appearance ([2]; 1 month) was “light yellowish”, the Content ([2]; 1 month) was 95.1% and the Related substance ([2]; 1 month) was 3.9%. For the same molecule, the Appearance ([2]; 2 month) was “light yellowish +”, the Content ([2]; 2 month) was 92.1% and the Related substance ([2]; 2 month) was 8.8%. For the same molecule, the Appearance ([2]; 3 month) was “light yellowish red”, the Content ([2]; 3 month) was 90.2% and the Related substance ([2]; 3 month) was 9.3%.
For `COc1cc(C(C)=O)ccc1O` [Apocynin], the “effect on differentiation of monocytes into M2 macrophages” value (from here on “effect on differentiation”) [5] is listed as “inhibit the differentiation of monocytes into M2 macrophages” and the “effect on occurrence of lung cancer” value [6] is listed as “inhibiting the occurrence of lung cancer”.
For `COc1ccc(O)c(C(C)(C)C)c1` [BHA, 2-tert-butyl-4-methoxyphenol], the half-life [7] was 30 to 60 min, the “recovery from central effect” value [8, 14] was “recovered after half an hour” and the toxic effect seen [8, 14] was “only part of the “hangover”-like central effect could be seen”. For the same molecule, the lethality [8, 15] was “half of the mice were lethal”, the “time until toxic reaction symptoms disappeared in the surviving mice” value [8, 15] was 30 to 60 min and the “toxic effect after long-term administration” value ([8]; long-term low-dose administrations in mice for 2 years) was “no toxic effect”. The “antioxidant capacity relative to 3-tert-butyl-4-methoxyphenol” value [9] was 2-3 times, the “macrophage polarization regulation activity relative to 3-tert-butyl-4-methoxyphenol” value [10] was 5-100 times and the “effect on M2 polarization of macrophages” value [11] was “inhibiting the M2 polarization of macrophages”. For the same molecule, the anti-tumor effect [12] was “anti-tumor proliferation and metastasis effects”, the “effect on differentiation” value [5] was “inhibit the differentiation of monocytes into M2 macrophages” and the “effect on occurrence of lung cancer” value [6] was “inhibiting the occurrence of lung cancer”. For the same molecule, the carcinogenic effects [13] was “has carcinogenic effects”.
In the case of `CC(=O)N[C@@H](CS)C(=O)O` [NAC], the “effect on differentiation” value [5] is given as “inhibit the differentiation of monocytes into M2 macrophages” and the “effect on occurrence of lung cancer” value [6] is given as “inhibiting the occurrence of lung cancer”.
In the case of `CC1(C)CCCC(C)(C)N1[O]` [TEMPO], the “effect on differentiation” value [5] is listed as “inhibit the differentiation of monocytes into M2 macrophages” and the “effect on occurrence of lung cancer” value [6] is listed as “inhibiting the occurrence of lung cancer”.
